# In patent US5585367A (priority 1990, dated 1996):
# Like-named read-outs stand apart in the source and are kept apart here.
# How the values were obtained:
# HIV-1 Wild A = experiment: Inhibition of HIV replication in PBL's; format: cell-based; details: Human immunodeficiency virus 1
# HIV-1 Wild D = experiment: Inhibition of HIV replication in PBL's; format: cell-based; details: Human immunodeficiency virus 1
# HIV-1 [1] = format: cell-based
# [2] = single dose of 3 g, one volunteer
# Tat = Tat antagonism
# HIV = experiment: In-vitro combination with didanosine; format: cell-based; details: at and below the IC50
# [3] = Single oral doses to healthy volunteers, tolerability and safety; format: in vivo, human
# Protocol: Pharmaceutical grade ADA in gelatin capsules, each containing 500 mg, was administered as single oral doses to healthy volunteers to determine its tolerability and safety. […] These changes were reversible within 4-6 hours from intake.
# HIV-1 [4] = format: cell-based; remark: listed apart in the source
# T4 lymphocytes [5] = experiment: Treatment of three patients presenting different stages of AIDS; format: in vivo, human; details: first patient (final phase), 1500 mgr a day, day 30; day 0: 24 cells
# pepsin = experiment: Inhibition of pepsin; format: biochemical
# [6] = target: T1, HIV-1 reverse transcriptase (RT) (Human immunodeficiency virus type 1 BH10, UniProt P03366); experiment: Acellular in-vitro inhibition of reverse transcriptase (polyrC-oligodG template-primer-complex); format: biochemical
# T1 construct: mature RT from Gag-Pol polyprotein (pr160Gag-Pol)
# Protocol: ADA in a liquid medium was tested in an acellular in-vitro system for any inhibitory effect on HIV-1 reverse transcriptase (RT) using the polyrC-oligodG template-primer-complex. […] From concentrations of 60 μgr/ml upward, there is a 50% inhibition of RT. […] Therefore, ADA inhibits HIV replication with an as yet unknown but original mode of action.
# HIV-1 Wild B = experiment: Inhibition of HIV replication in PBL's; format: cell-based; details: Human immunodeficiency virus 1
# HIV-1 LAI/IIIB [7] = experiment: Inhibition of HIV replication in PBL's; format: cell-based; details: PBLs; 0.4 μgr/ml to 250.0 μgr/ml
# HIV-1 LAI/IIIB [8] = experiment: Inhibition of HIV replication in MT4 cells; format: cell-based
# HIV-1 Wild G = experiment: Inhibition of HIV replication in PBL's; format: cell-based; details: Human immunodeficiency virus 1, Wild G (resistant to AZT, syncytium inducer)
# clinical [9] = details: human, in vivo, po
# wild HIV-1 strains = experiment: Inhibition of HIV replication, wild HIV-1 strains; format: cell-based; details: for IC90: Human immunodeficiency virus 1, wild strains from patients
# [10] = Tolerability and effectiveness of single doses; format: in vivo, human; details: single doses of between 7 and 140 mg per kg body weight
# [11] = B. L. OSER et al. (1965); cited from earlier work
# [12] = oral
# T4 lymphocytes [13] = experiment: Treatment of three patients presenting different stages of AIDS; format: in vivo, human
# Protocol: (§1) Three sound volunteers were treated for 30 days with 1500 mgr a day of a azobisformamide in three portions of 500 mgr.
# On the other handy three patients presenting different stages of AIDS were also treated with azobisformamide in the same dosages as he sound volunteers.
# The first patient in final phase presented at least 30 T4 lymphocytes/mm^3, abundant diarrheas and a complete space-time disorientation.
# The second patient in "ARC" phase presented a lymphocytar T4 population of 190/ mm^3, in constant decrease, as well as occasional diarrheas and anal herpes.
# [14] = Treatment of three sound volunteers for 30 days; format: in vivo, human; details: 1500 mgr a day (three portions of 500 mgr)
# Protocol: as §1
# clinical [15] = details: human, in vivo, po; remark: listed apart in the source
# HIV-2 ROD = experiment: Inhibition of HIV replication in MT4 cells; format: cell-based; details: 0.4 μgr/ml to 250.0 μgr/ml
# HIV-1 Wild F = experiment: Inhibition of HIV replication in PBL's; format: cell-based; details: Human immunodeficiency virus 1, Wild F (resistant to AZT, syncytium inducer)
# CD4 lymphocyte = experiment: Treatment of one patient with stage IV AIDS
# HIV-1 Wild C = experiment: Inhibition of HIV replication in PBL's; format: cell-based; details: Human immunodeficiency virus 1
# [16] = single oral doses, one volunteer
smiles,measurement,setting,value
"NC(=O)N=NC(N)=O [ADA, 1,1'-azobisformamide]",IC50,HIV-1 Wild A,8.9 µg/mL
same,IC90,HIV-1 Wild A,17.4 µg/mL
same,IC50,HIV-1 Wild D,10 µg/mL
same,IC90,HIV-1 Wild D,18.1 µg/mL
same,protection of cellular cultures against the infectious power of HIV-1,HIV-1 [1],protects the cellular cultures against the infectious power of HIV-1
same,absorption and excretion,[2],can be absorbed and even excreted in its active form
same,Tat antagonism,Tat,not a Tat-antagonist
same,combination with didanosine,HIV,additive effects
same,adverse effects on hematological and chemical parameters in blood and urine,[3]; 40 mg/kg or 60 mg/kg,No adverse effects were observed
same,"adverse effects on blood pressure, pulse, or respiratory rate",[3]; any of the tested dosages,No adverse effects were observed
same,glutathione in peripheral blood,[3]; from doses of 40 mg/kg,slightly depressed
same,methemoglobin reduces [reductase] in peripheral blood,[3]; from doses of 40 mg/kg,slightly depressed
same,"reversibility of the changes, time from intake",[3]; from doses of 40 mg/kg,4 to 6 h
same,tolerability,[3]; single oral dosages of up to 60 mg per kg body weight,well tolerated
same,methemoglobin,[3]; [16],dose-related increase in methemoglobin
same,return of methemoglobin to normal,[3]; [16],within half an hour
same,time of methemoglobin Cmax after intake,[3]; [16],1 to 1.5 h
same,cytopathogenic effect,HIV-1 [4],No cytopathogenic effect has been observed
same,T4 lymphocytes,T4 lymphocytes [5],49 cells/mm^3
same,inhibition of pepsin,pepsin,does not inhibit pepsin
same,RT inhibition,[6]; at concentrations up to the IC90,not an RT-inhibitor
same,inhibition of RT,[6]; from concentrations of 60 μgr/ml upward,50%
same,IC50,HIV-1 Wild B,11.6 µg/mL
same,IC90,HIV-1 Wild B,18.6 µg/mL
same,inhibition of the replication of HIV-1 (strain IIIB(LAI)),HIV-1 LAI/IIIB [7],inhibit the replication
same,IC50,"HIV-1 LAI/IIIB [8]; Human immunodeficiency virus 1, IIIB, MT4, MT4 cells infected with HIV-1 strain LAI/IIIB, read-out: lowest observed IC50",1.6 µg/mL
same,inhibition of the replication of HIV-1,"HIV-1 LAI/IIIB [8]; MT4 cells, 0.4 μgr/ml to 250.0 μgr/ml",inhibits the replication
same,IC50,HIV-1 Wild G,11.2 µg/mL
same,IC90,HIV-1 Wild G,21.2 µg/mL
same,Tmax,clinical [9],1 to 1.5 h
same,IC90,wild HIV-1 strains; read-out: IC90 range,17.4 to 21.2 µg/mL
same,IC90,"wild HIV-1 strains; read-out: median IC90 (complete inhibition, ≥90% inhibition)",18 µg/mL
same,inhibition of the replication of wild HIV-1 strains,"wild HIV-1 strains; PBLs, including strains phenotypically resistant to AZT, 0.4 to 250.0 μgr/ml",inhibit the replication
same,tolerability and effectiveness,[10],tolerable and effective
same,toxicity for the humans,[11],absence of toxicity
same,absorption,[12],absorbed via the gastro-intestinal route
same,distribution,[12],distributes readily to intracellular compartments
same,coherent talking,"T4 lymphocytes [13]; first patient, day 30",recovered their possibility of coherent talking
same,diarrhea,"T4 lymphocytes [13]; first patient, day 30",the diarrhea has ended
same,walking autonomy,"T4 lymphocytes [13]; first patient, day 30",limited walking autonomy
same,lymphocytes presenting the T4 receptor,"T4 lymphocytes [13]; first patient, day 30, day 0: 5%",9%
same,"lymphocytes, % of white corpuscules","T4 lymphocytes [13]; first patient, day 30, day 0: 17%",20%
same,white corpuscules,"T4 lymphocytes [13]; first patient, day 30, day 0: 1850",2600
same,improvement of T4 lymphocytes,"T4 lymphocytes [13]; first patient, day 30 vs day 0",100%
same,T4 lymphocytes,"T4 lymphocytes [13]; second patient (""ARC"" phase), day 30, before: 190",280 T4 lymphocytes/ mm^3
same,diarrhea and anal herpes,"T4 lymphocytes [13]; second patient, day 30",the diarrhea had completely disappeared as well as the anal herpes
same,T4 lymphocytes,"T4 lymphocytes [13]; third patient (sound seropositive), day 30, before: 350",440 T4 lymphocytes/ mm^3
same,hematological parameters,[14],remained perfectly normal
same,secondary effect,[14],No secondary effect was reported
same,MTD,clinical [15],140 mg/kg
same,inhibition of the replication of HIV-2 (ROD),HIV-2 ROD,inhibits the replication
same,toxical effect on Supt-1 cells,Supt-1 cells,No toxical effect has been noted
same,flu-like syndrome,"140 mg/kg, from 6 hours after intake, lasted several hours",flu-like syndrome was observed
same,adverse effects such as changes in hemodynamic parameters or subjective well-being,lower doses (35 and 70 mg/kg),No adverse effects
same,IC50,HIV-1 Wild F,6.4 µg/mL
same,IC90,HIV-1 Wild F,19 µg/mL
same,absolute CD4 lymphocyte count,"CD4 lymphocyte; 500 mg three times a day, 26-week period, from 77",144 cells/mm^3
same,diarrhea,CD4 lymphocyte; 12 weeks after restarting ADA,free of diarrhea
same,weight,CD4 lymphocyte; 12 weeks after restarting ADA,gained considerable weight
same,weight and diarrhea after withdrawal of ADA,CD4 lymphocyte; RT medication without ADA,lost weight and developed intractable diarrhea
same,CD4 lymphocyte count after withdrawal of ADA,"CD4 lymphocyte; RT medication without ADA, within two months",returned to baseline
same,CD4 lymphocyte count,CD4 lymphocyte; fifteen weeks after restarting ADA,190 cells/mm^3
same,adverse effects that could be drug-related,CD4 lymphocyte; occasional increases up to 2 grams three times a day,No adverse effects
same,CD4 lymphocyte count,"CD4 lymphocyte; restart at 1 gram three times a day, within two weeks",144 cells/mm^3
same,IC50,HIV-1 Wild C,11.1 µg/mL
same,IC90,HIV-1 Wild C,18 µg/mL
